Experiments:
Format in all cases: in vivo
[1] = system: Balb/c mice; experiment: open-field test, Balb/c mice (passive type of emotional-stress reaction); design: key to Total activity: sum of all locomotor activity counts (crossings + rearings) in 3 min; details: for Central activity (crossings) / Number of defecations / Peripheral activity (crossings) / Total activity / Vertical activity (rearings): M ± mx; for effect on the behavior (locomotor activity) of Balb/c mice in open-field test, in words: i.p., screening
Description: (§1) The main point of this approach consists in comparative analysis of the behavioural effects of tested compounds in two inbred strains of mice Balb/c and C57B1/6 with different hereditary types of emotional-stress reactions (ESR). The anxiolytic effect was estimated as the activation of the locomotor activity of animals with “passive” type of ESR (Balb/c mice). The main index describing the sedative properties of tested drugs was the inhibition of the locomotor activity of mice with “active” type of ESR (C57B1/6 strain). The anxioselectivity was evaluated according to coincidence of doses range which activated or inhibited the behavior of mice of different strains. Earlier this approach has been successfully used for estimation of anxioselective activity of such known drugs as phenazepam [Seredenin S. B. et al., Bull.Exp.Biol.Med., 1979, v.88, N7, p.38; Seredenin S. B. et al., Ann.Inst.Super.Sanita, 1990, v.26, N1, p.81-88], mexidol [Seredenin S. B. et al., Khimiko-Farmatsevt.Zhurnal, 1987, N2, p.134; Vironina T. A., Seredenin S. B., Ann.Inst.Super.Sanita, 1988, v.24, N3, p.461-466] and gidazepam [Seredenin S. B. et al., in: “Gidazepam” Kiev, Naukova Dumka, 1992, p.92; Seredenin S. B., Blednov Yu. A., Phys.Chem.Biol.Med., 1993, v.1, N1, p.53-60].
(§2) Male C57B1/6 and Balb/c mice (“Stolbovaya” animal farm), weighing 20-22 g were used. The animals were housed in a separate animal room in groups of ten and maintained on 12 h light-dark cycle (light from 8.00 till 20.00) with free access to standard food and water during two weeks before experiment. Testing was performed between 9.00 and 13.00. Every used compound was administered intraperitoneally in water solutions 30 min before testing (0,1 ml solution per 10 g of weight). The “open-field” apparatus consisted of cylinder closed from one end, illuminated by four 75 W lamps fixed to the walls 100 cm above the floor. The “open-field” apparatus was 100 cm in diameter and white-painted; the floor was marked with 3 black circles and some radial lines divided the floor into 16 peripheral and 8 central segments. 30 min after injection each animal was placed in the same peripheral square on the floor for 3 min of testing after 1 min exposure in the dark chamber. The following behavior variables were recorded: 1) the number of crossings in the peripheral area (peripheral activity); 2) the number of crossings in the central segments (central activity); 3) the number of rearings (vertical activity); 4) the emotionality was measured as the number of defecations during the test. The sum of all types of locomotor activity was marked as total activity. The t-Student test was used for statistical analysis.

[2] = system: C57B1/6 mice; experiment: open-field test, C57B1/6 mice (active type of emotional-stress reaction); design: key to Total activity: sum of all locomotor activity counts (crossings + rearings) in 3 min; details: for Central activity (crossings) / Peripheral activity (crossings) / Total activity / Vertical activity (rearings): M ± mx; for effect on locomotor activity of C57B1/6 mice in open-field test, in words: i.p., doses that activate Balb/c mice
Description: as §1, §2

[3] = system: cats; experiment: hemodynamics and activity of intact heart in cats under anesthesia; details: cats i.v.; for effect on heart rate, in words: doses of 0,5 mg/kg-2,0 mg/kg
Description: The effects of compounds on the hemodynamics and activity of intact heart were studied in cats under anesthesia. The experiments were carried out under conditions of open chest. The phase curve of aortic blood flow was the main index of cardiac activity. The compounds were administered i.v. in physiological solution. The t-Student' test was used to estimate the statistical significance.

C=CCSc1nc2cc(C)c(C)cc2[nH]1 [III, 2-Allylthio-5,6-dimethylbenzimidazole]
Central activity (crossings) ([1]; 0.1 mg/kg i.p.): 3.3 ± 2.0
Number of defecations ([1]; 0.1 mg/kg i.p.): 2.5 ± 0.9
Peripheral activity (crossings) ([1]; 0.1 mg/kg i.p.): 28.1 ± 5.8
Total activity ([1]; 0.1 mg/kg i.p.): 32.1 ± 7.9
Vertical activity (rearings) ([1]; 0.1 mg/kg i.p.): 0.6 ± 0.4
Central activity (crossings) ([1]; 1.0 mg/kg i.p.): 0.6 ± 0.3
Number of defecations ([1]; 1.0 mg/kg i.p.): 2.5 ± 0.7
Peripheral activity (crossings) ([1]; 1.0 mg/kg i.p.): 35.8 ± 6.1
Total activity ([1]; 1.0 mg/kg i.p.): 36.4 ± 6.4
Central activity (crossings) ([1]; 5.0 mg/kg i.p.): 0.3 ± 0.3
Number of defecations ([1]; 5.0 mg/kg i.p.): 3.0 ± 0.7
Peripheral activity (crossings) ([1]; 5.0 mg/kg i.p.): 46.8 ± 9.9
Total activity ([1]; 5.0 mg/kg i.p.): 47.5 ± 10.3
Vertical activity (rearings) ([1]; 5.0 mg/kg i.p.): 0.4 ± 0.3
Central activity (crossings) ([1]; 10.0 mg/kg i.p.): 3.3 ± 2.1
Number of defecations ([1]; 10.0 mg/kg i.p.): 2.0 ± 0.7
Peripheral activity (crossings) ([1]; 10.0 mg/kg i.p.): 56.1 ± 12.2
Total activity ([1]; 10.0 mg/kg i.p.): 59.4 ± 13.8
Number of defecations ([1]; 20.0 mg/kg i.p.): 1.5 ± 0.7
Peripheral activity (crossings) ([1]; 20.0 mg/kg i.p.): 24.0 ± 11.5
Total activity ([1]; 20.0 mg/kg i.p.): 24.1 ± 11.5
effect on the behavior (locomotor activity) of Balb/c mice in open-field test, in words [1]: able to activate the behavior of Balb/c mice
Central activity (crossings) ([2]; 0.1 mg/kg i.p.): 42.1 ± 4.8
Peripheral activity (crossings) ([2]; 0.1 mg/kg i.p.): 109.4 ± 8.3
Total activity ([2]; 0.1 mg/kg i.p.): 170.9 ± 10.0
Vertical activity (rearings) ([2]; 0.1 mg/kg i.p.): 19.4 ± 3.4
Central activity (crossings) ([2]; 0.5 mg/kg i.p.): 42.1 ± 7.5
Peripheral activity (crossings) ([2]; 0.5 mg/kg i.p.): 118.4 ± 9.0
Total activity ([2]; 0.5 mg/kg i.p.): 184.6 ± 8.6
Vertical activity (rearings) ([2]; 0.5 mg/kg i.p.): 22.6 ± 2.0
Central activity (crossings) ([2]; 1.0 mg/kg i.p.): 35.9 ± 7.6
Peripheral activity (crossings) ([2]; 1.0 mg/kg i.p.): 107.8 ± 7.4
Total activity ([2]; 1.0 mg/kg i.p.): 165.9 ± 13.5
Vertical activity (rearings) ([2]; 1.0 mg/kg i.p.): 22.3 ± 3.8
Central activity (crossings) ([2]; 5.0 mg/kg i.p.): 28.8 ± 6.9
Peripheral activity (crossings) ([2]; 5.0 mg/kg i.p.): 130.8 ± 16.8
Total activity ([2]; 5.0 mg/kg i.p.): 177.8 ± 20.7
Vertical activity (rearings) ([2]; 5.0 mg/kg i.p.): 18.6 ± 2.7
Central activity (crossings) ([2]; 10.0 mg/kg i.p.): 23.6 ± 5.3
Peripheral activity (crossings) ([2]; 10.0 mg/kg i.p.): 118.0 ± 7.9
Total activity ([2]; 10.0 mg/kg i.p.): 154.4 ± 13.3
Vertical activity (rearings) ([2]; 10.0 mg/kg i.p.): 12.9 ± 1.8
Central activity (crossings) ([2]; 50.0 mg/kg i.p.): 24.0 ± 2.7
Peripheral activity (crossings) ([2]; 50.0 mg/kg i.p.): 105.2 ± 11.9
Total activity ([2]; 50.0 mg/kg i.p.): 141.3 ± 11.7
Vertical activity (rearings) ([2]; 50.0 mg/kg i.p.): 12.1 ± 1.3
effect on locomotor activity of C57B1/6 mice in open-field test, in words [2]: without any changes in locomotor activity

CCOc1ccc2nc(SCCN(CC)CC)[nH]c2c1 [VI, 2-2-[(Diethylamino)ethylthio]-5-ethoxybenzo-imidazole]
Peripheral activity (crossings) ([1]; 0.1 mg/kg i.p., 0.1 mg/kg): 3.0 ± 1.8
Total activity ([1]; 0.1 mg/kg i.p., 0.1 mg/kg): 3.0 ± 1.8
Vertical activity (rearings) ([1]; 1.0 mg/kg i.p.): 0.4 ± 0.4
Peripheral activity (crossings) ([1]; 1.0 mg/kg i.p., 1 mg/kg): 3.3 ± 1.3
Total activity ([1]; 1.0 mg/kg i.p., 1 mg/kg): 3.7 ± 1.7
Peripheral activity (crossings) ([1]; 10.0 mg/kg i.p., 10 mg/kg): 3.1 ± 0.8
Total activity ([1]; 10.0 mg/kg i.p., 10 mg/kg): 3.1 ± 0.8
effect on the behavior (locomotor activity) of Balb/c mice in open-field test, in words [1]: inhibited the locomotor activity
effect on heart rate, in words [3]: small and short bradycardia

Cc1cc2nc(SCCN3CCCC3)[nH]c2cc1C [XIII, 2-[2-(Pyrrolidino)ethylthio]-5,6-dimethylbenzimidazole]
Central activity (crossings) ([1]; 0.5 mg/kg i.p.): 4.3 ± 4.1
Number of defecations ([1]; 0.5 mg/kg i.p.): 2.9 ± 0.6
Peripheral activity (crossings) ([1]; 0.5 mg/kg i.p.): 32.0 ± 5.7
Total activity ([1]; 0.5 mg/kg i.p.): 36.3 ± 9.8
Central activity (crossings) ([1]; 1.0 mg/kg i.p.): 0.8 ± 0.5
Number of defecations ([1]; 1.0 mg/kg i.p.): 1.0 ± 0.5
Peripheral activity (crossings) ([1]; 1.0 mg/kg i.p.): 80.0 ± 11.2
Total activity ([1]; 1.0 mg/kg i.p.): 80.8 ± 11.7
Number of defecations ([1]; 5.0 mg/kg i.p.): 1.6 ± 0.7
Peripheral activity (crossings) ([1]; 5.0 mg/kg i.p.): 69.0 ± 13.2
Total activity ([1]; 5.0 mg/kg i.p.): 69.0 ± 13.2
Central activity (crossings) ([1]; 50.0 mg/kg i.p.): 0.7 ± 0.5
Peripheral activity (crossings) ([1]; 50.0 mg/kg i.p.): 27.7 ± 6.2
Total activity ([1]; 50.0 mg/kg i.p.): 28.4 ± 6.7
effect on the behavior (locomotor activity) of Balb/c mice in open-field test, in words [1]: able to activate the behavior of Balb/c mice
effect on locomotor activity of C57B1/6 mice in open-field test, in words [2]: without any changes in locomotor activity

CCN(CC)CCSc1nc2ccccc2n1Cc1ccccc1 [XIX, 1-Benzyl-2-[2-(diethylarnino)ethylthio]benzimidazole]
effect on the behavior (locomotor activity) of Balb/c mice in open-field test, in words [1]: inhibited the locomotor activity
effect on parameters of hemodynamics and heart activity, in words [3]: no effects on the parameters of hemodynamics and heart activity

CCOc1ccc2nc(SCCN3CCCCC3)[nH]c2c1 [XI]
effect on the behavior (locomotor activity) of Balb/c mice in open-field test, in words [1]: neither activatory nor inhibitory effects
effect on parameters of hemodynamics and heart activity, in words [3]: no effects on the parameters of hemodynamics and heart activity

Cc1cc2nc(SCCCN(C)C)[nH]c2cc1C [XVI, 2-[3-(Dimethylamino)propylthio]-5,6-dimethylbenzimidazole]
effect on the behavior (locomotor activity) of Balb/c mice in open-field test, in words [1]: inhibited the locomotor activity
effect on parameters of hemodynamics and heart activity, in words [3]: no effects on the parameters of hemodynamics and heart activity

Cc1cc2nc(SCCCN3CCN(C)CC3)[nH]c2cc1C [XVII, 2-[3-(4-Methylpyperazino)propylthio]-5,6-dimethylbenzimidazole]
Central activity (crossings) ([1]; 0.1 mg/kg i.p.): 0.5 ± 0.5
Number of defecations ([1]; 0.1 mg/kg i.p.): 2.0 ± 0.8
Peripheral activity (crossings) ([1]; 0.1 mg/kg i.p.): 4.0 ± 1.0
Total activity ([1]; 0.1 mg/kg i.p.): 4.5 ± 1.5
Number of defecations ([1]; 1.0 mg/kg i.p.): 0.1 ± 0.1
Peripheral activity (crossings) ([1]; 1.0 mg/kg i.p.): 7.7 ± 1.9
effect on the behavior (locomotor activity) of Balb/c mice in open-field test, in words [1]: inhibited the locomotor activity
effect on heart rate, in words [3]: small and short bradycardia

CN(C)CCSc1nc2ccccc2n1Cc1ccccc1 [XVIII, 1-Benzyl-2-[2-(dimethylamino)ethylthuo]benzimidazole]
effect on parameters of hemodynamics and heart activity, in words [3]: no effects on the parameters of hemodynamics and heart activity

CCN(CC)CCSc1nc2ccccc2n1CCc1ccccc1 [XXI, 1-(β-Phenylethyl)-2-[2-(diethylamino)ethylthio]benzimidazole]
effect on the behavior (locomotor activity) of Balb/c mice in open-field test, in words [1]: neither activatory nor inhibitory effects
effect on heart rate, in words [3]: small and short bradycardia

c1ccc(CCn2c(SCCN3CCOCC3)nc3ccccc32)cc1 [XXII]
effect on the behavior (locomotor activity) of Balb/c mice in open-field test, in words [1]: neither activatory nor inhibitory effects
effect on parameters of hemodynamics and heart activity, in words [3]: no effects on the parameters of hemodynamics and heart activity

From patent US6376666B1 (Nauchno-Issledovatelsky Institut Farmakologii Rossiiskoi …, priority 1994, dated 2002)
